# Experimental data from US12685312B2, “Sulfonamide apyrase inhibitors” (Texas Crop Science, Inc., priority 2022, dated 2026).
# Tested on: apyrase
# Assay: Screen for apyrase inhibitors (Method 1, in vitro phosphate-release absorbance assay)
# Assay type: biochemical
# Conditions: inhibitor conc at 1 mM stock, 1 hr room temperature, absorbance 630 nm; rounded average of two assay results
# In short: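 Phosphate-release colorimetric assay (Windsor method) in 60 mM Hepes, 3 mM MgCl2, 3 mM CaCl2, 3 mM ATP, pH 6.5, with compound or DMSO control added. Released phosphate developed with ammonium molybdate and ascorbic acid/TCA, then stopped with citrate/acetic acid.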
row,Structure (SMILES),% Inhibition of Apyrase [%]
1,"O=C(c1ccc(NS(=O)(=O)c2cc(Cl)ccc2Cl)cc1)N1CCc2ccccc21 [I-964, 2,5-dichloro-N-(4-(indoline-1-carbonyl)phenyl)benzenesulfonamide]",10
2,"O=C(c1ccc(NS(=O)(=O)c2ccc(F)cc2)cc1)N1CCc2ccccc21 [I-965, 4-fluoro-N-(4-(indoline-1-carbonyl)phenyl)benzenesulfonamide]",3
3,"O=C(Nc1ccc(S(=O)(=O)Nc2ccccc2Cl)cc1)c1ccc(C(F)(F)F)cc1 [I-971, N-(4-(N-(2-chlorophenyl)sulfamoyl)phenyl)-4-(trifluoromethyl)benzamide]",67
4,"O=C(Nc1ccc(S(=O)(=O)Nc2ccc(F)c(Cl)c2)cc1)c1cccc([N+](=O)[O-])c1 [I-972, N-(4-(N-(3-chloro-4-fluorophenyl)sulfamoyl)phenyl)-3-nitrobenzamide]",66
5,"COc1cccc(C(=O)Nc2ccc(S(=O)(=O)Nc3ccccc3OC)cc2)c1 [I-973, 3-methoxy-N-(4-(N-(2-methoxyphenyl)sulfamoyl)phenyl)benzamide]",63
6,"Cc1ccc(C(=O)Nc2ccc(S(=O)(=O)Nc3ccc(F)cc3)cc2)cc1Br [I-974, 3-bromo-N-(4-(N-(4-fluorophenyl)sulfamoyl)phenyl)-4-methylbenzamide]",63
7,"O=C(Nc1ccc(S(=O)(=O)Nc2cccc(C(F)(F)F)c2)cc1)c1cc([N+](=O)[O-])cc([N+](=O)[O-])c1 [I-975, 3,5-dinitro-N-(4-(N-(3-(trifluoromethyl)phenyl)sulfamoyl)phenyl) benzamide]",62
8,"O=C(Nc1ccc(S(=O)(=O)Nc2ccc(Cl)cc2)cc1)c1cccc(C(F)(F)F)c1 [I-976, N-(4-(N-(4-chlorophenyl)sulfamoyl)phenyl)-3-(trifluoromethyl)benzamide]",60
9,"O=C(Nc1ccc(S(=O)(=O)Nc2cccc(C(F)(F)F)c2)cc1)c1ccc(F)cc1Cl [I-977, 2-chloro-4-fluoro-N-(4-(N-(3-(trifluoromethyl)phenyl)sulfamoyl)phenyl) benzamide]",59
10,"COc1ccccc1C(=O)Nc1ccc(S(=O)(=O)Nc2ccc(Cl)cc2)cc1 [I-978, N-(4-(N-(4-chlorophenyl)sulfamoyl)phenyl)-2-methoxybenzamide]",59
11,"O=C(Nc1ccc(S(=O)(=O)Nc2cccc(C(F)(F)F)c2)cc1)c1ccc(Cl)c([N+](=O)[O-])c1 [I-979, 4-chloro-3-nitro-N-(4-(N-(3-(trifluoromethyl)phenyl)sulfamoyl)phenyl) benzamide]",58
12,"O=C(Nc1ccc(S(=O)(=O)N2CCc3ccccc32)cc1)c1cccc([N+](=O)[O-])c1 [I-980, N-(4-(indolin-1-ylsulfonyl)phenyl)-3-nitrobenzamide]",58
13,"COc1ccccc1NS(=O)(=O)c1ccc(NC(=O)c2ccc3c(c2)OCCO3)cc1 [I-981, N-(4-(N-(2-methoxyphenyl)sulfamoyl)phenyl)-2,3-dihydrobenzo[b][1,4]dioxine-6-carboxamide]",57
14,"O=C(Nc1ccc(S(=O)(=O)Nc2ccccc2Cl)cc1)c1ccc(Cl)c(Cl)c1 [I-982, 3,4-dichloro-N-(4-(N-(2-chlorophenyl)sulfamoyl)phenyl)benzamide]",57
15,"COc1ccccc1NS(=O)(=O)c1ccc(NC(=O)c2ccccc2SCC2CCCO2)cc1 (centres unmarked) [I-985, N-(4-(N-(2-methoxyphenyl)sulfamoyl)phenyl)-2-(((tetrahydrofuran-2-yl)methyl)thio)benzamide]",57
16,"CCOc1ccc(NS(=O)(=O)c2ccc(NC(=O)c3cccc(OC(F)F)c3)cc2)cc1 [I-986, 3-(difluoromethoxy)-N-(4-(N-(4-ethoxyphenyl)sulfamoyl)phenyl)benzamide]",56
17,"NS(=O)(=O)c1cc(C(=O)Nc2ccc(S(=O)(=O)Nc3ccc(Cl)cc3)cc2)ccc1Cl [I-987, 4-chloro-N-(4-(N-(4-chlorophenyl)sulfamoyl)phenyl)-3-sulfamoylbenzamide]",55
18,"COc1ccc(C(=O)Nc2ccc(S(=O)(=O)Nc3ccc(Cl)cc3)cc2)cc1 [I-988, N-(4-(N-(4-chlorophenyl)sulfamoyl)phenyl)-4-methoxybenzamide]",55
19,"Cc1ccc(NS(=O)(=O)c2ccc(NC(=O)c3cccc(S(C)(=O)=O)c3)cc2)cc1C [I-989, N-(4-(N-(3,4-dimethylphenyl)sulfamoyl)phenyl)-3-(methylsulfonyl)benzamide]",54

row,Structure (SMILES),% Inhibition of Apyrase [%]
1,"O=C(Nc1ccc(S(=O)(=O)Nc2cccc(Cl)c2)cc1)c1ccc(F)cc1 [I-990, N-(4-(N-(3-chlorophenyl)sulfamoyl)phenyl)-4-fluorobenzamide]",53
2,"COc1ccc(NS(=O)(=O)c2ccc(NC(=O)c3cccc(S(=O)(=O)N(C)C)c3)cc2)cc1 [I-991, 3-(N,N-dimethylsulfamoyl)-N-(4-(N-(4-methoxyphenyl)sulfamoyl)phenyl)benzamide]",53
3,"COc1ccc(NS(=O)(=O)c2ccc(NC(=O)c3cc(Cl)cc(Cl)c3)cc2)cc1 [I-992, 3,5-dichloro-N-(4-(N-(4-methoxyphenyl)sulfamoyl)phenyl)benzamide]",49
4,"COc1ccccc1NS(=O)(=O)c1ccc(NC(=O)c2cccc([N+](=O)[O-])c2)cc1 [I-993, N-(4-(N-(2-methoxyphenyl)sulfamoyl)phenyl)-3-nitrobenzamide]",48
5,"O=C(Nc1ccc(S(=O)(=O)Nc2ccccc2Cl)cc1)c1ccc2c(c1)OCCO2 [I-994, N-(4-(N-(2-chlorophenyl)sulfamoyl)phenyl)-2,3-dihydrobenzo[b][1,4]dioxine-6-carboxamide]",47
6,"COc1ccccc1C(=O)Nc1ccc(S(=O)(=O)Nc2cccc(Cl)c2)cc1 [I-995, N-(4-(N-(3-chlorophenyl)sulfamoyl)phenyl)-2-methoxybenzamide]",46
7,"COc1ccc(NS(=O)(=O)c2ccc(NC(=O)c3ccccc3OC(F)F)cc2)cc1OC [I-996, 2-(difluoromethoxy)-N-(4-(N-(3,4-dimethoxyphenyl)sulfamoyl)phenyl)benzamide]",46
8,"COc1ccccc1NS(=O)(=O)c1ccc(NC(=O)c2cccc(C#N)c2)cc1 [I-997, 3-cyano-N-(4-(N-(2-methoxyphenyl)sulfamoyl)phenyl)benzamide]",43
9,"O=C(Nc1ccc(S(=O)(=O)Nc2cccc(C(F)(F)F)c2)cc1)c1cccc(F)c1 [I-998, 3-fluoro-N-(4-(N-(3-(trifluoromethyl)phenyl)sulfamoyl)phenyl) benzamide]",34
10,"COc1ccccc1NS(=O)(=O)c1ccc(NC(=O)c2ccc(C#N)cc2)cc1 [I-999, 4-cyano-N-(4-(N-(2-methoxyphenyl)sulfamoyl)phenyl)benzamide]",29
11,"O=C(Nc1ccc(S(=O)(=O)Nc2cccc(C(F)(F)F)c2)cc1)c1ccccc1 [I-1000, N-(4-(N-(3-(trifluoromethyl)phenyl)sulfamoyl)phenyl) benzamide]",28
12,"COc1ccc(NS(=O)(=O)c2ccc(NC(=O)c3ccc(Cl)cc3)cc2)cc1 [I-1001, 4-chloro-N-(4-(N-(4-methoxyphenyl)sulfamoyl)phenyl)benzamide]",16
13,"COc1ccc(NS(=O)(=O)c2ccc(NC(=O)c3ccc(F)cc3)cc2)cc1 [I-1002, 4-fluoro-N-(4-(N-(4-methoxyphenyl)sulfamoyl)phenyl)benzamide]",3
14,"Cc1ccnn1-c1ccc(C(=O)Nc2ccc(NS(=O)(=O)c3ccc4c(c3)OCCO4)cc2)cc1 [I-1003, N-(4-((2,3-dihydrobenzo[b][1,4]dioxine)-6-sulfonamido)phenyl)-4-(5-methyl-1H-pyrazol-1-yl)benzamide]",47
15,"CCOc1ccc(Br)cc1S(=O)(=O)Nc1ccc(NC(=O)c2ccccc2F)cc1 [I-1004, N-(4-((5-bromo-2-ethoxyphenyl)sulfonamido)phenyl)-2-fluorobenzamide]",46
16,"COc1ccc(NS(=O)(=O)c2cccc(C(=O)Nc3ccc(C#N)cc3)c2)cc1 [I-1006, N-(4-cyanophenyl)-3-(N-(4-methoxyphenyl)sulfamoyl)benzamide]",42
17,"O=C(Nc1cccc(OC(F)F)c1)c1cccc(S(=O)(=O)Nc2cccc(C(F)(F)F)c2)c1 [I-1007, N-(3-(difluoromethoxy)phenyl)-3-(N-(3-(trifluoromethyl)phenyl)sulfamoyl)benzamide]",33
18,"Cc1ccc(NS(=O)(=O)c2cccc(C(=O)Nc3cccc(S(N)(=O)=O)c3)c2)cc1 [I-1008, N-(3-sulfamoylphenyl)-3-(N-(p-tolyl)sulfamoyl)benzamide]",29
19,"Cc1n[nH]c(C)c1CCC(=O)Nc1cccc(NC(=O)c2cccc(S(=O)(=O)Nc3ccc(Br)cc3)c2)c1 [I-1009, 3-(N-(4-bromophenyl)sulfamoyl)-N-(3-(3-(3,5-dimethyl-1H-pyrazol-4-yl)propanamido)phenyl)benzamide]",26
